Earlier results on four molecules are cited in patent publication EP4631497A1, “LIPOSOMAL COMPOSITION FOR TOPICAL ADMINISTRATION” (priority 2024, dated 2025).

Read-outs that look alike come from different tables or passages of the source.

For `C[C@@H]1O[C@@H](O[C@H]2[C@H](Oc3cc(O)c4c(c3)O[C@H](c3ccc(O)cc3)CC4=O)O[C@H](CO)[C@@H](O)[C@@H]2O)[C@H](O)[C@H](O)[C@H]1O` [Naringin], the Wasserlöslichkeit (water) was under 1 mg/mL.
For the molecule `O=C(CCc1ccc(O)cc1)c1c(O)cc(O)cc1O` [Phloretin], the Wasserlöslichkeit (bei 25°C) was < 0,1 mg/ml.
Take `Oc1ccc(C=Cc2cc(O)cc(O)c2)cc1` [Resveratrol]: where the note is “bei 25°C”, the Wasserlöslichkeit was < 0,1 mg/ml.
`O=C1c2c(O)cc(O)cc2O[C@H](c2ccc(O)c(O)c2)[C@H]1O` [Taxifolin]: the Wasserlöslichkeit (bei 25°C) is under 1 mg/mL.
